In article PMC11551755, “Structure-based discovery of first inhibitors targeting the helicase activity of human PIF1” (Nucleic Acids Research, 2024):

Target: T1, FLhPIF1 (Homo sapiens, UniProt Q9H611)
T1 construct: Full length human PIF1 (FLhPIF1) was expressed and purified as a His-SUMO fusion; His-SUMO (cleaved yes); made in house; 'following similar protocols' to hPIF1HD (ArcticExpress BL21(DE3) E. coli)
T1 sequence (Q9H611 1-641): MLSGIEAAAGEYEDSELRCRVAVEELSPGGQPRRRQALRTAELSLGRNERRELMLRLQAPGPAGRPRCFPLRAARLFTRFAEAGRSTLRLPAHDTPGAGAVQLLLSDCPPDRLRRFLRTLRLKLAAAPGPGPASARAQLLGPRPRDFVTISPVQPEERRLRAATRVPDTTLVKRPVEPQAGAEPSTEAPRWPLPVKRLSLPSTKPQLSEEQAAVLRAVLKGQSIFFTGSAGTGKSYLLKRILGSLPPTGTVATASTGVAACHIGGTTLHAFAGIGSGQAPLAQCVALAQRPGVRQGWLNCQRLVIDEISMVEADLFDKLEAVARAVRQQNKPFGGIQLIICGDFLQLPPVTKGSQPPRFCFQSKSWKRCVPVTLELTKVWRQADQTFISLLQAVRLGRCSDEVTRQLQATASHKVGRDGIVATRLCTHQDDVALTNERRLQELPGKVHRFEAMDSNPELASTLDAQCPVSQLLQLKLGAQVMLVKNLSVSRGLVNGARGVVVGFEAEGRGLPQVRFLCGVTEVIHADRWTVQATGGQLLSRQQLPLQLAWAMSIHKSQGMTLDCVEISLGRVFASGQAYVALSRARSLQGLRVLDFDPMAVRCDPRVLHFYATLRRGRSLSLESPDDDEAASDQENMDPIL
Assay: DNA-dependent ATPase assay
Type: biochemical
Settings: 1 mM compound, 25 nM FLhPIF1, 250 nM d(T)55, 10 min at 37°C
Procedure: ATP hydrolysis was measured under helicase reaction conditions with 25 nM FLhPIF1 and 250 nM oligo d(T)55 and 0.0125 μM [γ-^32P]ATP (6000 Ci/mmol). Released phosphate was quantified using the charcoal binding assay of Iggo and Lane ([45]) after 10 min at 37°C.
Supplementary Figure 11. ATPase activity determined with and without inhibitors. ATPase assays, 25 nM FLhPIF1, 250 nM d(T)55 ssDNA, were performed for 10 minutes at 37 °C under helicase reaction conditions, with and without 1 mM compound (n = 3). Compound 2 was not included in the analysis due to lack of available material. […] The data are broadly in agreement with the results of ssDNA binding EMSA except compound 6 (see discussion).

`Nc1nc(-c2ccc(C(=O)c3ccccc3)cc2)cs1` [Compound 6] was tested, and the “inhibition of DNA-dependent ATPase” value was “effective inhibitor of DNA-dependent ATPase”.
